Experimental data reported in patent US20250205208A1, “USE OF SU3327 IN PREPARATION OF MEDICAMENT FOR REDUCING CYTOTOXICITY AND NEPHROTOXICITY OF POLYMYXIN” (XIAMEN HANLIXIN PHARMACEUTICAL CO., LTD., priority 2023, published 2025).

Columns and labels:
[1] = system: JNK and JIP; conditions: read-out: IC50 for inhibition of protein interaction between JNK and JIP; cited from earlier work
[2] = system: E. coli; conditions: laboratory tests, Collins group, Cell 2020; cited from earlier work
[3] = system: HEK293 cells; assay: Cell viability test by CCK-8 method; type: cell-based, Human
Procedure: Human Embryonic Kidney cells (HEK293), preserved by National Center for Veterinary Drug Safety Evaluation of China Agricultural University.
Cytotoxicity was determined by a CCK-8 method. After HEK293 cells (5×10^4 cells/well) were seeded onto 96-well tissue culture plates and cultured for 24 hours, the cells were treated with SU3327 or Polymyxin E alone or in combination, with SU3327 in a final concentration of 5 μM, 2.5 μM, 1.25 μM and 0.625 μM; Polymyxin E in a final concentration of 2 mM; combination groups of SU3327 and Polymyxin E: Polymyxin E (2 mM)+SU3327 (5 μM), Polymyxin E (2 mM)+SU3327 (2.5 μM), Polymyxin E (2 mM)+SU3327 (1.25 μM), Polymyxin E (2 mM)+SU3327 (0.625 μM), and control group (Control) 0.1% DMSO. Following continued culture for 24 h, a CCK-8 kit was used to detect the changes in cell viability.

[4] = system: JNK; conditions: read-out: IC50 as JNK inhibitor; cited from earlier work
[5] = system: mice having kidney damage induced by Polymyxin E; assay: Mouse model of nephrotoxicity by Polymyxin E: urea nitrogen and creatinine in serum; type: in vivo, C57BL/6 mice
Procedure: (§1) C57BL/6 mice, male, 8-week-old, weighing 20-22 g, purchased from Vital River Laboratory Animal Technology Co., Ltd.
(§2) The mice were housed in the National Center for Veterinary Drug Safety Evaluation of China Agricultural University, fed with routine pelleted feed and free access to water, at a controlled temperature of (22±2)° C., and a humidity of (50±10) %. Adaptive housing was performed for 1 week before experiments.
(§3) […] were randomly divided into 6 groups (n=8 in each group), as follows:
(§4) Control group: the mice were intraperitoneally injected with an equivalent amount of normal saline.
(§5) Polymyxin E model group: the mice were intraperitoneally injected with Polymyxin E
(§6) at a single dose of 10 mg/kg body weight, twice a day, with an interval of 8 hours between doses; i.e., the mice were administered with Polymyxin E in 20 mg/kg body weight per day.
(§7) SU3327 control group: the mice were intraperitoneally injected with dissolved SU3327 at a single dose of 10 mg/kg body weight, once a day for 10 straight days; i.e., the mice were administered with SU3327 in 10 mg/kg body weight per day.
(§8) SU3327 high-dose protection group: the mice were intraperitoneally injected with SU3327 at a single dose of 10 mg/kg body weight, concurrently with Polymyxin E in 10 mg/kg, twice, with an interval of 8 hours between doses; i.e., the mice were administered with SU3327 in 10 mg/kg body weight per day, concurrently with Polymyxin E in 20 mg/kg body weight per day.
(§9) SU3327 medium-dose protection group: the mice were intraperitoneally injected with SU3327 at a single dose of 5 mg/kg body weight, concurrently with Polymyxin E in […], twice, with an interval of 8 hours between doses; i.e., the mice were administered with SU3327 in 5 mg/kg body weight per day, concurrently with Polymyxin E in 20 mg/kg body weight per day.
SU3327 low-dose protection group: the mice were intraperitoneally injected with SU3327 at a single dose of 2.5 mg/kg body weight, concurrently with Polymyxin E in 10 mg/kg, twice, with an interval of 8 hours between doses; i.e., the mice were administered with SU3327 in 2.5 mg/kg body weight per day, concurrently with Polymyxin E in 20 mg/kg body weight per day. […]
The blood samples collected from the mice were centrifuged at 3000 rpm for 10 min, and the supernatant was aspirated. The changes of urea nitrogen in serum and creatinine in serum were detected by an automatic biochemical detector.

[6] = system: mice having kidney damage induced by Polymyxin E; assay: Mouse model of nephrotoxicity by Polymyxin E: kidney histopathology and semiquantitative scoring (SQS); type: in vivo, C57BL/6 mice; conditions: for pathological damage score: 10 days, P<0.001
Procedure: as §1, §2, §3, §4, §5, §6, §7, §8, §9
SU3327 low-dose protection group: the mice were intraperitoneally injected with SU3327 at a single dose of 2.5 mg/kg body weight, concurrently with Polymyxin E in 10 mg/kg, twice, with an interval of 8 hours between doses; i.e., the mice were administered with SU3327 in 2.5 mg/kg body weight per day, concurrently with Polymyxin E in 20 mg/kg body weight per day.
In the experiments above, reference was made to the previously published literature by the inventors for the method of establishing the mouse model of nephrotoxicity by Polymyxin E (Dai C, Tang S, Wang Y, Velkov T, Xiao X. Baicalein acts as a nephroprotectant that ameliorates colistin-induced nephrotoxicity by activating the antioxidant defence mechanism of the kidneys and down-regulating the inflammatory response. J Antimicrob Chemother. 2017 Sep. 1; 72(9):2562-2569).
Following dosing by injection for 10 straight days, the mice were euthanized by intraperitoneal injection with an overdose of sodium pentobarbital (80 mg/kg) 24 hours post the last dosing, and blood and kidney tissues were collected quickly, the serum and tissues were processed as follows.
The isolated, fresh kidney tissues were washed with normal saline, sampled and fixed in 10% neutral formalin for 48 h, after being flushed with water, and then dehydrated, cleared, immersed in paraffin, embedded, sectioned and stained in sequence. The pathological changes in kidney tissues were observed and photographed under a microscope. HE staining: the paraffin sections were taken, and placed in an oven at a constant temperature of 60° C. for 30 min; followed by paraffin removal and dehydration with ethanol, and immersing with double distilled water; hematoxylin staining for 10 min, rinsing with tap water, and differentiation with acid alcohol; flushing with running water until the sections turned blue; 95% ethanol for 30 s, alcoholic eosin staining for 30 s, 95% ethanol for 30 s, and 100% ethanol for 30 s; clearing with Xylene, and sealing with neutral gum.
Following HE staining, damages to the renal tissues were evaluated using a semiquantitative scoring (SQS). […]

[7] = system: Akt kinases; conditions: cited from earlier work
[8] = system: Clostridium difficile; conditions: laboratory tests, Collins group, Cell 2020; cited from earlier work
[9] = biological target: p38α (Homo sapiens, UniProt Q16539); conditions: cited from earlier work
[10] = system: Mycobacterium tuberculosis; conditions: laboratory tests, Collins group, Cell 2020; cited from earlier work
[11] = in vivo; cited from earlier work
[12] = SU3327 at 2.5, 5 and 10 mg/kg i.p. in combination with Polymyxin E 20 mg/kg per day, 10 days
[13] = Polymyxin E 20 mg/kg per day i.p. for 10 straight days

p38α, sequence (Q16539 whole entry): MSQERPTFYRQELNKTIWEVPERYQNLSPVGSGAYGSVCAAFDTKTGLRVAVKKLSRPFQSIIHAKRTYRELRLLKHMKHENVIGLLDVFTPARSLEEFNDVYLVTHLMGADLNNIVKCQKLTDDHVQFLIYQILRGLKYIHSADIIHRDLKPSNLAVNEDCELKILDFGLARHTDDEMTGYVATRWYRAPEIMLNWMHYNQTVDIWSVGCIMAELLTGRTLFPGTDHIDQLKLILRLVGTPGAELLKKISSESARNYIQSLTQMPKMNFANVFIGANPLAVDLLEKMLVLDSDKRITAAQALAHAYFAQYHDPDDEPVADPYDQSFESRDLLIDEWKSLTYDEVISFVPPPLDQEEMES

For Nc1nnc(Sc2ncc([N+](=O)[O-])s2)s1 [SU3327], the IC50 [1] is given as 239 nM, the “growth of E. coli” value [2] is given as “effectively prevented the growth” and the cell viability ([3]; SU3327 2.5 μM in combination with Polymyxin E 2 mM, 24 h) is given as 68.5%. The “cell viability compared to treatment group with polymyxin alone” value ([3]; SU3327 (5-0.625 μM) in combination with Polymyxin E 2 mM, 24 h) was “increased to some extent”, the “cell viability compared with control group” value ([3]; SU3327 alone in 5 μM, 2.5 μM, 1.25 μM and 0.625 μM, 24 h) was “significantly changed” and the IC50 [4] was 700 nM. For the same compound, the “level of creatinine in the serum compared to Polymyxin E model group” value [5, 12] was “significantly lowered”, the “level of urea nitrogen in the serum compared to Polymyxin E model group” value [5, 12] was “significantly lowered” and the pathological damage score ([6]; SU3327 2.5 mg/kg i.p. in combination with Polymyxin E 20 mg/kg per day) was 1. The pathological damage score ([6]; SU3327 5 mg/kg i.p. in combination with Polymyxin E 20 mg/kg per day) was 0.75, the pathological damage score ([6]; SU3327 10 mg/kg i.p. in combination with Polymyxin E 20 mg/kg per day) was 0.5 and the “pathological changes in renal tubules” value ([6]; SU3327 in combination with Polymyxin E) was “remarkably improved”. The “activity for Akt kinases” value [7] was “low activity”, the “killing of Clostridium difficile” value [8] was “killed” and the “activity for p38α” value [9] was “low activity”. The “killing of Mycobacterium tuberculosis” value [10] was “killed”.
For Polymyxin E, the cell viability ([3]; polymyxin alone 2 mM, 24 hours) was 55.3%, the “level of BUN in the serum compared to control group” value [5, 13] was “significantly up-regulated” and the “level of CRE in the serum compared to control group” value [5, 13] was “significantly up-regulated”. For the same compound, the “average of pathological semiquantitative score” value [6, 13] was 3, the “kidney pathological damages (epithelial cell shedding, necrosis, tubular casts)” value [6, 13] was “obvious pathological damages” and the “clinical incidence of nephrotoxicity” value [11] was “up to 60%”. For the same compound, the “clinical incidence of neurotoxicity” value [11] was “about 7%” and the “clinical incidence of symptoms from mild peripheral neurotoxicity” value [11] was at most 100%.
